Like-named read-outs stand apart in the source and are kept apart here.
Test system: biological indicators
Settings: for Biological Indicator Results: STERRAD 50, 6 minutes contact, plasma 400 watts
Experimental: The biological indicator is placed into the sterilizer with the equipment to be sterilized. At the end of the sterilization process, the biological indicator is removed from the sterilizer, and the carrier is immersed in a sterile culture medium. The culture medium and carrier are incubated for a predetermined time at an appropriate temperature. At the end of the incubation period, it is determined whether any microorganisms have grown in the growth medium. If there is no growth of microorganisms in the growth medium, it is assumed that the equipment in the sterilizer has been properly sterilized. If microorganism growth is observed, the sterilization process was not effective, and the articles in the sterilizer are rejected for use. The growth of microorganisms is determined through a signal such as the generation of turbidity or a color change in a pH indicator due to a pH change from byproducts of cell growth in the medium. Biological indicators are described, for example, in U.S. Pat. Nos. 5,552,320 and 6,436,659, both of which are incorporated herein by reference in their entirety.
A series of integrators was prepared by contacting paper disks with an aqueous solution of arginine. The integrators were placed in a STERRAD® 50 sterilizer with a load of equipment to be sterilized and several biological indicators. The paper disks are absorbing substrates.
The sterilizer was evacuated to 0.8 torr. Plasma was produced in the chamber for 15 minutes to condition the load. The sterilizer was evacuated further to 0.4 torr, and hydrogen peroxide was injected and contacted with the load, integrators, and biological indicators for 6 minutes.
The sterilizer was vented with air for 2 minutes. The sterilizer was evacuated again to 0.5 torr, and plasma was produced for an additional 2 minutes. The plasma power was 400 watts for both plasma exposures.

OO [Hydrogen Peroxide, hydrogen peroxide]
Biological indicator (BI) result (Hydrogen peroxide injection of 300 μL in the STERRAD 50 sterilizer): negative
Biological Indicator Results (Hydrogen peroxide injection volume 100 μL): 100% positive
Biological Indicator Results (Hydrogen peroxide injection volume 250 μL): 40% positive
Biological Indicator Results (Hydrogen peroxide injection volume 400 μL): 0% positive
Biological Indicator Results (Hydrogen peroxide injection volume 500 μL): 0% positive

Reference: patent US20070092969A1, “Integrator system and method for rapidly determining effectiveness of a germicidal treatment” (priority 2005, published 2007)
